Measured values reported in the NIST ThermoML archive (doi:10.1021/acs.jced.7b01073).
± gives the expanded uncertainty stated by the source.

Settings: Liquid, Closed cell (Static) method

## CCCC [butane]
283.15 K
  vapor or sublimation pressure: 148.1 ± 1 kPa
293.15 K
  vapor or sublimation pressure: 207.2 ± 1 kPa
303.15 K
  vapor or sublimation pressure: 283.4 ± 1.1 kPa
313.15 K
  vapor or sublimation pressure: 378.6 ± 1.1 kPa
323.15 K
  vapor or sublimation pressure: 496.5 ± 1.2 kPa

## C=C(F)C(F)(F)F [2,3,3,3-tetrafluoro-1-propene]
283.15 K
  vapor or sublimation pressure: 437.9 ± 7 kPa
293.15 K
  vapor or sublimation pressure: 591.5 ± 7.1 kPa
303.15 K
  vapor or sublimation pressure: 782.9 ± 7.1 kPa
313.15 K
  vapor or sublimation pressure: 1018.2 ± 7.2 kPa
323.15 K
  vapor or sublimation pressure: 1302.4 ± 7.2 kPa
